The values below come from US10899773B2 (priority 2014, dated 2021).

Common to all, as to assay: cells
Format in all cases: cell-based

The subject of assay [1] is MES SA DX. The settings on record: Homo sapiens, 72 h, read-out: MES SA DX IC50 nM.
Assay [2] concerns 293T. To be noted: Homo sapiens, HEK-293T, 72 h, read-out: 293T IC50 nM.
Assay [3] deals with MES SA. The settings on record: Homo sapiens, 72 h, read-out: MES SA IC50 nM.

Structures are written as SMILES.

The IC50 is the midpoint of a concentration-inhibition curve. `COc1c2c(c(O)c3c4c(c(C)cc13)C1C3OC5(C(OC)OC)OC15[C@]1(CO1)[C@]3(O)O4)C(=O)[C@@H](O)C[C@@H]2OC1CC(C)(O)C(OC(C)=O)C(C)O1` (stereo partly drawn) [Trox12]: the results for the IC50 in assay [1], in assay [2] and in assay [3] were greater than 1000 nM, 14.9 nM and 18.1 nM, respectively.
With `COc1c2c(c(O)c3c4c(c(C)cc13)C1C3OC5(C(OC)OC)OC15[C@]1(CO1)[C@]3(OC1CC(O)C(O)(C(C)=O)C(C)O1)O4)C(=O)[C@@H](O)C[C@@H]2OC1CC(C)(O)C(OC(C)=O)C(C)O1` (stereo partly drawn) [Trox13], the IC50 in assay [1] is 204 nM; in assay [2], 0.702 nM; in assay [3] it was 0.74 nM.
For `COc1c2c(c(O)c3c4c(c(C)cc13)C1C3OC5(C(OC)OC)OC15[C@]1(CO1)[C@]3(OC1CC(O)C(O)(C(C)=O)C(C)O1)O4)C(=O)[C@@H](O)C[C@@H]2OC1CC(C)(O)C(O)C(C)O1` (stereo partly drawn) [Trox14], the results for the half-maximal inhibitory concentration (IC50) in assay [1], in assay [2] and in assay [3] were greater than 1000 nM, 8.02 nM and 11.1 nM, respectively.
As for `COc1c2c(c(O)c3c4c(c(C)cc13)C1C3OC5(C(OC)OC)OC15[C@]1(CO1)[C@]3(OC1CC(OC(C)=O)C(O)(C(C)=O)C(C)O1)O4)C(=O)[C@@H](O)C[C@@H]2O` (stereo partly drawn) [Trox15], the 50% inhibitory concentration (IC50) in assay [1] is greater than 1000 nM; in assay [2], 95.4 nM; in assay [3], 157 nM.
Turning to `COc1c2c(c(O)c3c4c(c(C)cc13)C1C3OC5(C(OC)OC)OC15[C@]1(CO1)[C@]3(OC1CC(OC(C)=O)C(O)(C(C)=O)C(C)O1)O4)C(=O)[C@@H](O)C[C@@H]2OC1CC(C)(O)C(OC(C)=O)C(C)O1` (stereo partly drawn) [Trox16], the half-maximal inhibitory concentration (IC50) in assay [1] is greater than 1000 nM; in assay [2], 2.81 nM; in assay [3], 2.02 nM.
